Laboratory results as given in the supplement of paper PMC4862054.

Assays:
Assay in all cases: normalised response (% of control), CellTiter-Glo; higher = more viable cells (100 = DMSO, 0 = benzethonium chloride kill control)
Conditions in all cases: incubation time: 72 h
[1] = tested on: BT-474
Outline: (§1)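 Breast cancer cell lines in 20 µl suspension were added to 384-well plates containing compound at 5 concentrations, spaced in 10-fold steps across a 10,000-fold range chosen for each compound, and incubated for 72 h. CellTox Green fluorescence was read at 485/520 nm, followed by CellTiter-Glo luminescence after 10 min at room temperature. Signals on each plate were normalised so that 0.1 % DMSO equals 100 and a positive kill control equals 0. Every value in the table is the normalised signal at one concentration of the series.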

[2] = tested on: BT-549
Outline: as §1

[3] = tested on: CAL-120
Outline: as §1

[4] = tested on: CAL-148
Outline: as §1

[5] = tested on: CAL-51
Outline: as §1

[6] = tested on: CAL-85-1
Outline: as §1

[7] = tested on: DU-4475
Outline: as §1

[8] = tested on: HCC1143
Outline: as §1

[9] = tested on: HCC1599
Outline: as §1

[10] = tested on: HCC1937
Outline: as §1

[11] = tested on: HDQ-P1
Outline: as §1

[12] = tested on: Hs578T
Outline: as §1

[13] = tested on: MCF-10A
Outline: as §1

[14] = tested on: MDA-MB-231
Outline: as §1

[15] = tested on: MDA-MB-436
Outline: as §1

[16] = tested on: MDA-MB-453
Outline: as §1

[17] = tested on: MDA-MB-468
Outline: as §1

[18] = tested on: MFM-223
Outline: as §1

[19] = tested on: SK-BR-3
Outline: as §1

SMILES | normalised response [1] | normalised response [2] | normalised response [3] | normalised response [4] | normalised response [5] | normalised response [6] | normalised response [7] | normalised response [8] | normalised response [9] | normalised response [10] | normalised response [11] | normalised response [12] | normalised response [13] | normalised response [14] | normalised response [15] | normalised response [16] | normalised response [17] | normalised response [18] | normalised response [19]
CCn1c(C(=O)N(C2CC2)C2CC2)cc2c3c(ncn3C)c(Nc3cc(C)n(C)n3)nc21 (1 nM) | 92.6% | 103% | 94.4% | 97.4% | 135% | 105% | 99.7% | 100% | 96.7% | 105% | 99.6% | 98% | 102% | 106% | 97.9% | 89.3% | 100% | 102% | 102%
CCn1c(C(=O)N(C2CC2)C2CC2)cc2c3c(ncn3C)c(Nc3cc(C)n(C)n3)nc21 (10 nM) | 93.5% | 95.2% | 97.3% | 107% | 85.3% | 101% | 96.9% | 104% | 82.5% | 99.5% | 95.6% | 105% | 99.8% | 100% | 103% | 93.3% | 106% | 102% | 
COc1ccc(S(=O)(=O)Nc2cccnc2Nc2ccc(O)cc2)cc1 [ABT-751] (10 nM) | 101% | 95.8% | 101% | 93.6% | 117% | 97.5% | 102% | 106% | 124% | 97.5% | 98.5% | 93.8% | 101% | 100% | 108% | 105% | 98.2% | 96.7% | 
CN[C@@H](C)C(=O)N[C@H]1CN(C(=O)CC(C)C)CC[C@H]2CC[C@@H](C(=O)NC(c3ccccc3)c3ccccc3)N2C1=O [AT-406] (1 nM) | 101% | 106% | 98.4% | 98.3% | 125% | 96.8% | 98.2% | 109% | 104% | 101% | 99.9% | 95.1% | 108% | 98.3% | 108% | 103% | 98.3% | 101% | 105%
CN[C@@H](C)C(=O)N[C@H]1CN(C(=O)CC(C)C)CC[C@H]2CC[C@@H](C(=O)NC(c3ccccc3)c3ccccc3)N2C1=O [AT-406] (10 nM) | 94.3% | 66.1% | 96.7% | 109% | 126% | 97.8% | 99.9% | 95.5% | 99.7% | 104% | 102% | 99.5% | 105% | 95.5% | 97.5% | 89.3% | 103% | 105% | 110%
Cc1cc(Nc2nc(N[C@@H](C)c3ncc(F)cn3)ncc2Cl)[nH]n1 [AZD1480] (1 nM) | 102% | 92.5% | 98% | 89.7% | 113% | 98.4% | 102% | 95.7% | 102% | 96.4% | 96.6% | 99.7% | 97.1% | 99.7% | 101% | 103% | 98.1% | 95.1% | 118%
CNC(=O)c1ccccc1Sc1ccc2c(/C=C/c3ccccn3)n[nH]c2c1 [Axitinib] (10 nM) | 107% | 107% | 96.7% | 101% | 121% | 102% | 102% | 102% | 111% | 100% | 103% | 97.7% | 103% | 107% | 103% | 107% | 96.8% | 105% | 106%
CC(O)(CS(=O)(=O)c1ccc(F)cc1)C(=O)Nc1ccc(C#N)c(C(F)(F)F)c1 (configuration not stated) [Bicalutamide] (10 nM) | 107% | 99.5% | 100% | 113% | 105% | 106% | 104% | 105% | 106% | 98.6% | 105% | 99% | 109% | 105% | 111% | 100% | 102% | 111% | 130%
CCNC(=O)CCC/C=C\C[C@@H]1[C@@H](/C=C/[C@@H](O)CCc2ccccc2)[C@H](O)C[C@@H]1O [Bimatoprost] (5.5 nM) | 96.6% | 91.7% | 93.1% | 92.8% | 106% | 96.1% | 99.5% | 99.4% | 96.9% | 96% | 94.5% | 98.4% | 96.4% | 101% | 102% | 96.8% | 96.5% | 96.1% | 
COc1cc(Nc2c(C#N)cnc3cc(OCCCN4CCN(C)CC4)c(OC)cc23)c(Cl)cc1Cl [Bosutinib] (10 nM) | 100% | 98.4% | 100% | 105% | 92.3% | 94.6% | 97.7% | 100% | 91.1% | 95.5% | 97.3% | 104% | 96.9% | 96.1% | 97.6% | 104% | 107% | 106% | 102%
